Molecular target: CK2A1 (CK2α/β) (Homo sapiens, UniProt P68400)
Experiment: CK2 kinase assay, CK2A1 (CK2α/β)
Type: biochemical
Conditions: Table A; read-out: CK2A1 (CK2α/β) (IC50)

CK2A1 (CK2α/β), sequence (P68400 whole entry, species assumed): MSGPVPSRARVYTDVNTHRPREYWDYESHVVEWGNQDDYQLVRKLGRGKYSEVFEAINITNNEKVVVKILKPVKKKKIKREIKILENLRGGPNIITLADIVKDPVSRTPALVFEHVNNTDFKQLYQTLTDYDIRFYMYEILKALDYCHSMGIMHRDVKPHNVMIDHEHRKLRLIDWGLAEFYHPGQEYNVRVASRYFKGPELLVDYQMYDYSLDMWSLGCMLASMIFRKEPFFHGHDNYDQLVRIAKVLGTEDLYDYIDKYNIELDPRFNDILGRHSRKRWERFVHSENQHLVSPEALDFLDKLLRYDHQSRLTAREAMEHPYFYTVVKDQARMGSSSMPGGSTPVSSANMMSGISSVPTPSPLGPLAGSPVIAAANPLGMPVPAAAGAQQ
CK2A1 (CK2α/β), sequence (P67870 whole entry partner, species assumed): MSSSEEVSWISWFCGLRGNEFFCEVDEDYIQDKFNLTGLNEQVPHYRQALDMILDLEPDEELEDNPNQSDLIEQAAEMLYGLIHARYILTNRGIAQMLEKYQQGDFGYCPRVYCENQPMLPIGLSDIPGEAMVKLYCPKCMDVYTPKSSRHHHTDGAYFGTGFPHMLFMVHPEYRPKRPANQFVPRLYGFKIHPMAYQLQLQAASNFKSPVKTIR

Structure (SMILES) | IC50 [nM]
N#Cc1cc(Nc2nc(NC3CC3)c3ncc(C#N)n3n2)c(Cl)c(N2CCN(C3CCS(=O)(=O)C3)CC2)c1 (stereo not drawn) [Example 582, 2-({2-chloro-5-cyano-3-[4-(1,1-dioxo-1λ^6-thiolan-3-yl)piperazin-1-yl]phenyl}amino)-4-(cyclopropylamino)imidazo [2,1-f][1,2,4]triazine-7-carbonitrile] | 5.9
CCNc1nc(Nc2cc(C#N)cc(N3CCN(C4CN(C)C4)CC3)c2Cl)nn2c(C#N)cnc12 [Example 583, 2-({2-chloro-5-cyano-3-[4-(1-methylazetidin-3-yl)piperazin-1-yl]phenyl}amino)-4-(ethylamino)imidazo [2,1-f][1,2,4]triazine-7-carbonitrile] | 2.9
N#Cc1cc(Nc2nc(NC3CC3)c3ncc(C#N)n3n2)c(Cl)c(N2CCN(C(=O)CN3CCC3)CC2)c1 [Example 584, 2-[(3-{4-[2-(azetidin-1-yl)acetyl]piperazin-1-yl}-2-chloro-5-cyanophenyl)amino]-4-(cyclopropylamino)imidazo [2,1-f][1,2,4]triazine-7-carbonitrile] | 1.54
COC1CN(CC(=O)N2CCN(c3cc(C#N)cc(Nc4nc(NC5CC5)c5ncc(C#N)n5n4)c3Cl)CC2)C1 [Example 585, 2-[(2-chloro-5-cyano-3-{4-[2-(3-methoxyazetidin-1-yl)acetyl]piperazin-1-yl}phenyl)amino]-4-(cyclopropylamino)imidazo [2,1-f][1,2,4]triazine-7-carbonitrile] | 3.28
CCNc1nc(Nc2cc(C#N)cc(N3CCN(C4CN(CC(O)CF)C4)CC3)c2Cl)nn2c(C#N)cnc12 (stereo not drawn) [Example 586, 2-[(2-chloro-5-cyano-3-{4-[1-(3-fluoro-2-hydroxypropyl)azetidin-3-yl]piperazin-1-yl}phenyl)amino]-4-(ethylamino)imidazo[2,1-f][1,2,4]triazine-7-carbonitrile] | 1.58
N#Cc1cc(Nc2nc(NC3CC3)c3ncc(C#N)n3n2)c(Cl)c(N2CCN(C3CCCC3F)CC2)c1 (stereo not drawn) [Example 587, 2-({2-chloro-5-cyano-3-[4-(2-fluorocyclopentyl)piperazin-1-yl]phenyl}amino)-4-(cyclopropylamino)imidazo [2,1-f][1,2,4]triazine-7-carbonitrile] | 8.02
C[C@@H](O)CN1CC(N2CCN(c3cc(C#N)cc(Nc4nc(NC5CC5)c5ncc(C#N)n5n4)c3Cl)CC2)C1 [Example 588, 2-{[2-chloro-5-cyano-3-(4-{1-[(2R)-2-hydroxypropyl]azetidin-3-yl}piperazin-1-yl)phenyl]amino}-4-(cyclopropylamino)imidazo [2,1-f][1,2,4]triazine-7-carbonitrile] | 3.08
N#Cc1cc(Nc2nc(NC3CC3)c3ncc(C#N)n3n2)c(Cl)c(N2CCN([C@H]3CCC[C@@H]3O)CC2)c1 [Example 589, 2-[(2-chloro-5-cyano-3-{4-[(1S,2S)-2-hydroxycyclopentyl]piperazin-1-yl}phenyl)amino]-4-(cyclopropylamino)imidazo [2,1-f][1,2,4]triazine-7-carbonitrile] | 7.56
N#Cc1cc(Nc2nc(NC3CC3)c3ncc(C#N)n3n2)c(Cl)c(N2CCN(CCO)CC2)c1 [Example 590, 2-({2-chloro-5-cyano-3-[4-(2-hydroxyethyl)piperazin-1-yl]phenyl}amino)-4-(cyclopropylamino)imidazo [2,1-f][1,2,4]triazine-7-carbonitrile] | 1.83
COC(=O)N1CCC(N2CCN(c3cc(C#N)cc(Nc4nc(NC5CC5)c5ncc(C#N)n5n4)c3Cl)CC2)C1 (stereo not drawn) [Example 591, methyl 3-[4-(2-chloro-5-cyano-3-{[7-cyano-4-(cyclopropylamino)imidazo [2,1-f][1,2,4]triazine-2-yl]amino}phenyl)piperazin-1-yl]pyrrolidine-1-carboxylate] | 3.82
CN1CC(OC(=O)N2CCN(c3cc(C#N)cc(Nc4nc(NC5CC5)c5ncc(C#N)n5n4)c3Cl)CC2)C1 [Example 592, 1-methylazetidin-3-yl 4-(2-chloro-5-cyano-3-{[7-cyano-4-(cyclopropylamino)imidazo [2,1-f][1,2,4]triazin-2-yl]amino}phenyl) piperazine-1-carboxylate] | 0.44
N#Cc1cc(Nc2nc(NC3CC3)c3ncc(C#N)n3n2)c(Cl)c(N2CCN(C3CC3)CC2)c1 [Example 593, 2-{[2-chloro-5-cyano-3-(4-cyclopropylpiperazin-1-yl)phenyl]amino}-4-(cyclopropylamino)imidazo [2,1-f][1,2,4]triazine-7-carbonitrile] | 1.35
N#Cc1cc(Nc2nc(NC3CC3)c3ncc(C#N)n3n2)c(Cl)c(N2CCN(CCC(F)F)CC2)c1 [Example 595, 2-({2-chloro-5-cyano-3-[4-(3,3-difluoropropyl)piperazin-1-yl]phenyl}amino)-4-(cyclopropylamino)imidazo [2,1-f][1,2,4]triazine-7-carbonitrile] | 1.44
COC(C)CN1CCN(c2cc(C#N)cc(Nc3nc(NC4CC4)c4ncc(C#N)n4n3)c2Cl)CC1 (stereo not drawn) [Example 596, 2-({2-chloro-5-cyano-3-[4-(2-methoxypropyl)piperazin-1-yl]phenyl}amino)-4-(cyclopropylamino)imidazo [2,1-f][1,2,4]triazine-7-carbonitrile] | 0.6
N#Cc1cc(Nc2nc(NC3CC3)c3ncc(C#N)n3n2)c(Cl)c(N2CCN(CC3CNCCO3)CC2)c1 (stereo not drawn) [Example 597, 2-({2-chloro-5-cyano-3-[4-(morpholin-2-ylmethyl)piperazin-1-yl]phenyl}amino)-4-(cyclopropylamino)imidazo [2,1-f][1,2,4]triazine-7-carbonitrile] | 0.62
N#Cc1cc(Nc2nc(NC3CC3)c3ncc(C#N)n3n2)c(Cl)c(N2CCN(CC3COCCN3)CC2)c1 (stereo not drawn) [Example 598, 2-({2-chloro-5-cyano-3-[4-(morpholin-3-ylmethyl)piperazin-1-yl]phenyl}amino)-4-(cyclopropylamino)imidazo [2,1-f][1,2,4]triazine-7-carbonitrile] | 0.51
N#Cc1cc(Nc2nc(NC3CC3)c3ncc(C#N)n3n2)c(Cl)c(N2CCN(CC(=O)NS(=O)(=O)C3CC3)CC2)c1 [Example 599, 2-[4-(2-chloro-5-cyano-3-{[7-cyano-4-(cyclopropylamino)imidazo [2,1-f][1,2,4]triazin-2-yl]amino}phenyl)piperazin-1-yl]-N-(cyclopropanesulfonyl) acetamide] | 0.4
N#Cc1cc(Nc2nc(NC3CC3)c3ncc(C#N)n3n2)c(Cl)c(N2CCN(CC(N)=O)CC2)c1 [Example 600, 2-[4-(2-chloro-5-cyano-3-{[7-cyano-4-(cyclopropylamino)imidazo[2,1-f][1,2,4]triazin-2-yl]amino}phenyl)piperazin-1-yl]acetamide] | 0.53
N#Cc1cc(Nc2nc(NC3CC3)c3ncc(C#N)n3n2)c(Cl)c(N2CCN([C@H]3C[C@H](F)C3)CC2)c1 [Example 601, 2-[(2-chloro-5-cyano-3-{4-[(1r,3r)-3-fluorocyclobutyl]piperazin-1-yl}phenyl)amino]-4-(cyclopropylamino)imidazo [2,1-f][1,2,4]triazine-7-carbonitrile] | 1.41
COC[C@@H](O)CN1CCN(c2cc(C#N)cc(Nc3nc(NC4CC4)c4ncc(C#N)n4n3)c2Cl)CC1 [Example 602, 2-[(2-chloro-5-cyano-3-{4-[(2S)-2-hydroxy-3-methoxypropyl]piperazin-1-yl}phenyl)amino]-4-(cyclopropylamino)imidazo [2,1-f][1,2,4]triazine-7-carbonitrile] | 4.34
CCNc1nc(Nc2cc(C#N)cc(N3CCN(CC4(C)COC4)CC3)c2Cl)nn2c(C#N)cnc12 [Example 603, 2-[(2-chloro-5-cyano-3-{4-[(3-methyloxetan-3-yl)methyl]piperazin-1-yl}phenyl)amino]-4-(ethylamino)imidazo[2,1-f] [1,2,4]triazine-7-carbonitrile] | 2.85
CCNc1nc(Nc2cc(C#N)cc(N3CCN(CC(C)(CO)CO)CC3)c2Cl)nn2c(C#N)cnc12 [Example 604, 2-[(2-chloro-5-cyano-3-{4-[3-hydroxy-2-(hydroxymethyl)-2-methylpropyl]piperazin-1-yl}phenyl)amino]-4-(ethylamino)imidazo[2,1-f][1,2,4]triazine-7-carbonitrile] | 0.99
CCNc1nc(Nc2cc(C#N)cc(N3CCN(C4CN(C(C)=O)C4)CC3)c2Cl)nn2c(C#N)cnc12 [Example 605, 2-({3-[4-(1-acetylazetidin-3-yl)piperazin-1-yl]-2-chloro-5-cyanophenyl}amino)-4-(ethylamino)imidazo[2,1-f][1,2,4]triazine-7-carbonitrile] | 0.91
COC[C@H](O)CN1CCN(c2cc(C#N)cc(Nc3nc(NC4CC4)c4ncc(C#N)n4n3)c2Cl)CC1 [Example 606, 2-[(2-chloro-5-cyano-3-{4-[(2R)-2-hydroxy-3-methoxypropyl]piperazin-1-yl}phenyl)amino]-4-(cyclopropylamino)imidazo [2,1-f][1,2,4]triazine-7-carbonitrile] | 0.72
CS(=O)(=O)NC(=O)CN1CCN(c2cc(C#N)cc(Nc3nc(NC4CC4)c4ncc(C#N)n4n3)c2Cl)CC1 [Example 607, 2-[4-(2-chloro-5-cyano-3-{[7-cyano-4-(cyclopropylamino)imidazo [2,1-f][1,2,4]triazin-2-yl]amino}phenyl)piperazin-1-yl]-N-methanesulfonamide-acetamide] | 0.56
CC(CO)N1CC(N2CCN(c3cc(C#N)cc(Nc4nc(NC5CC5)c5ncc(C#N)n5n4)c3Cl)CC2)C1 (stereo not drawn) [Example 608, 2-[(2-chloro-5-cyano-3-{4-[1-(1-hydroxypropan-2-yl)azetidin-3-yl]piperazin-1-yl}phenyl)amino]-4-(cyclopropylamino)imidazo [2,1-f][1,2,4]triazine-7-carbonitrile] | 1.48
N#Cc1cc(Nc2nc(NC3CC3)c3ncc(C#N)n3n2)c(Cl)c(N2CCN(CC3CCCCO3)CC2)c1 (stereo not drawn) [Example 609, 2-({2-chloro-5-cyano-3-[4-(oxan-2-ylmethyl)piperazin-1-yl]phenyl}amino)-4-(cyclopropylamino)imidazo [2,1-f][1,2,4]triazine-7-carbonitrile] | 1.39
